Target: T1, T1R2/T1R3 taste receptor (Homo sapiens, UniProt Q7RTX0+Q8TE23)
T1 sequence (Q8TE23 20-839): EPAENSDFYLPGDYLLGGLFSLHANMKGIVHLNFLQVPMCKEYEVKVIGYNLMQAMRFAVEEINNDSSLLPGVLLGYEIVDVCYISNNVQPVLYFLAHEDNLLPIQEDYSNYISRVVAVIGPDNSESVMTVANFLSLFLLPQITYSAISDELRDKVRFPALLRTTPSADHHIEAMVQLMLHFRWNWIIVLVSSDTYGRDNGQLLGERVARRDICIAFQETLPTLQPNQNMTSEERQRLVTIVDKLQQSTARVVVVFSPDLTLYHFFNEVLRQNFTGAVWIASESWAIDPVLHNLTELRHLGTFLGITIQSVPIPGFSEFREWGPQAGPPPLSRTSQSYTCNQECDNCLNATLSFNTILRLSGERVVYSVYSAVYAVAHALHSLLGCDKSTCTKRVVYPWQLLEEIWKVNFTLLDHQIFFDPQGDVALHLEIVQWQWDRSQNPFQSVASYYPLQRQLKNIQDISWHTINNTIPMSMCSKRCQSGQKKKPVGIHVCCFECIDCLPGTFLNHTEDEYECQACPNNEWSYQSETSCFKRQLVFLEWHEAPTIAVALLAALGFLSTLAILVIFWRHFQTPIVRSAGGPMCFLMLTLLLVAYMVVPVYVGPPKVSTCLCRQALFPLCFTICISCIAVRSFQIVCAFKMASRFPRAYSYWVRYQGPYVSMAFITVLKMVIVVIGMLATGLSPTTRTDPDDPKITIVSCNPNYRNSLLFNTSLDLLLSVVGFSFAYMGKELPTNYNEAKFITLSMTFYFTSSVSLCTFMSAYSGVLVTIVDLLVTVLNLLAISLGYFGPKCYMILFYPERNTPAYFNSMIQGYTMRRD
T1 sequence (Q7RTX0 21-852): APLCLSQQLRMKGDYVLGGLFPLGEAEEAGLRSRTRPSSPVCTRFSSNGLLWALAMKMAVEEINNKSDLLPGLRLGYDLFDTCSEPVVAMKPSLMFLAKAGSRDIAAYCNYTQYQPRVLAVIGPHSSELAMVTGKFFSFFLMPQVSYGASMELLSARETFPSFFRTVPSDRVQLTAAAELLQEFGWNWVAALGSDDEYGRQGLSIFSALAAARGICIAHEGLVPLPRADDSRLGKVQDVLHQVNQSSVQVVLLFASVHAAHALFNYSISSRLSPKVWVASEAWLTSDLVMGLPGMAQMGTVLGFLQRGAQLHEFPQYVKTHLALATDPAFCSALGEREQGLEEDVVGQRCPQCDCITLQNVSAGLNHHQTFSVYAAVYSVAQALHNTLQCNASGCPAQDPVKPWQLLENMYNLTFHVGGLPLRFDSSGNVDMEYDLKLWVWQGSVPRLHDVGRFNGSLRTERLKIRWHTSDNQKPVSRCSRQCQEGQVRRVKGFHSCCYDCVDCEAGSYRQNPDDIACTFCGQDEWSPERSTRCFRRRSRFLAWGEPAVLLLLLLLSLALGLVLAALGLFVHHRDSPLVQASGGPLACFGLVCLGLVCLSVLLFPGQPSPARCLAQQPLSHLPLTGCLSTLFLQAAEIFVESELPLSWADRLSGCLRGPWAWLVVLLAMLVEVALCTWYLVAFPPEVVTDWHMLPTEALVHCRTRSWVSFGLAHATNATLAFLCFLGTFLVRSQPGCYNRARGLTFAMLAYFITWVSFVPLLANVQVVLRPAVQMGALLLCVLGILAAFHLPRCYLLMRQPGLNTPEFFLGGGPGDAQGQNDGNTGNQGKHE
Experiment: Receptor-based assay: sweetener EC50 enhancement ratio with and without test compound
Type: cell-based
Conditions: for Sucrose Enhancement EC50 Ratio: sweetener sucrose; for Sucralose Enhancement EC50 Ratio: sweetener sucralose; for Fructose Enhancement EC50 Ratio: sweetener fructose
Outline: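 Sweetener (sucrose, sucralose, fructose) EC50 measured alone and with 1, 3, 10 or 50 μM test compound. Enhancement ratio = EC50 without/with compound; A = >1 to <10, B = 10–20, C = >20.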

SMILES | Sucrose Enhancement EC50 Ratio (1 μM test compound) | Sucralose Enhancement EC50 Ratio (3 μM test compound) | Sucrose Enhancement EC50 Ratio (3 μM test compound) | Fructose Enhancement EC50 Ratio (10 μM test compound) | Sucralose Enhancement EC50 Ratio (10 μM test compound) | Sucrose Enhancement EC50 Ratio (10 μM test compound) | Fructose Enhancement EC50 Ratio (50 μM test compound)
CCC(CC)OCC(=O)N[C@H]1CC[C@H](Oc2cccc3nc(C)c(C(=O)O)c(N)c23)CC1 [Compound 341] | A (an enhancement ratio of greater than 1 and less than 10) | A (an enhancement ratio of greater than 1 and less than 10) | B (an enhancement ratio from 10 to 20) | – | – | – | –
CCNCC(=O)N[C@H]1CC[C@H](Oc2cccc3nc(C)c(C(=O)O)c(N)c23)CC1.Cl [Compound 400, 4-Amino-5-((trans-4-(2-(ethylamino)acetamido)cyclohexyl)oxy)-2-methyl quinolone-3-carboxylic acid (HCl)] | A (an enhancement ratio of greater than 1 and less than 10) | – | A (an enhancement ratio of greater than 1 and less than 10) | A (an enhancement ratio of greater than 1 and less than 10) | A (an enhancement ratio of greater than 1 and less than 10) | A (an enhancement ratio of greater than 1 and less than 10) | A (an enhancement ratio of greater than 1 and less than 10)
Cc1nc2cccc(O[C@H]3CC[C@H](NC(=O)CN)CC3)c2c(N)c1C(=O)O [Compound 401] | A (an enhancement ratio of greater than 1 and less than 10) | – | A (an enhancement ratio of greater than 1 and less than 10) | A (an enhancement ratio of greater than 1 and less than 10) | A (an enhancement ratio of greater than 1 and less than 10) | A (an enhancement ratio of greater than 1 and less than 10) | –
CNCC(=O)N[C@H]1CC[C@H](Oc2cccc3nc(C)c(C(=O)O)c(N)c23)CC1 [Compound 402] | A (an enhancement ratio of greater than 1 and less than 10) | – | A (an enhancement ratio of greater than 1 and less than 10) | A (an enhancement ratio of greater than 1 and less than 10) | A (an enhancement ratio of greater than 1 and less than 10) | B (an enhancement ratio from 10 to 20) | –
CN[C@@H](C)C(=O)N[C@H]1CC[C@H](Oc2cccc3nc(C)c(C(=O)O)c(N)c23)CC1.Cl [Compound 500] | A (an enhancement ratio of greater than 1 and less than 10) | – | A (an enhancement ratio of greater than 1 and less than 10) | – | A (an enhancement ratio of greater than 1 and less than 10) | A (an enhancement ratio of greater than 1 and less than 10) | A (an enhancement ratio of greater than 1 and less than 10)
CNC(C)(C)C(=O)N[C@H]1CC[C@H](Oc2cccc3nc(C)c(C(=O)O)c(N)c23)CC1 [Compound 501] | A (an enhancement ratio of greater than 1 and less than 10) | – | A (an enhancement ratio of greater than 1 and less than 10) | A (an enhancement ratio of greater than 1 and less than 10) | B (an enhancement ratio from 10 to 20) | A (an enhancement ratio of greater than 1 and less than 10) | A (an enhancement ratio of greater than 1 and less than 10)
CN[C@@H](CO)C(=O)N[C@H]1CC[C@H](Oc2cccc3nc(C)c(C(=O)O)c(N)c23)CC1 [Compound 502] | A (an enhancement ratio of greater than 1 and less than 10) | – | A (an enhancement ratio of greater than 1 and less than 10) | A (an enhancement ratio of greater than 1 and less than 10) | A (an enhancement ratio of greater than 1 and less than 10) | A (an enhancement ratio of greater than 1 and less than 10) | A (an enhancement ratio of greater than 1 and less than 10)
CN[C@H](C(=O)N[C@H]1CC[C@H](Oc2cccc3nc(C)c(C(=O)O)c(N)c23)CC1)C(C)C [Compound 503] | A (an enhancement ratio of greater than 1 and less than 10) | – | A (an enhancement ratio of greater than 1 and less than 10) | A (an enhancement ratio of greater than 1 and less than 10) | B (an enhancement ratio from 10 to 20) | A (an enhancement ratio of greater than 1 and less than 10) | A (an enhancement ratio of greater than 1 and less than 10)
Cc1nc2cccc(O[C@H]3CC[C@H](NC(=O)[C@@H]4CCCN4)CC3)c2c(N)c1C(=O)O [Compound 504] | A (an enhancement ratio of greater than 1 and less than 10) | – | A (an enhancement ratio of greater than 1 and less than 10) | – | – | – | –
Cc1nc2cccc(O[C@H]3CC[C@H](NC(=O)CN4CCOCC4)CC3)c2c(N)c1C(=O)O.Cl [Compound 600, 4-Amino-2-methyl-5-((trans-4-(2-morpholinoacetamido)cyclohexyl)oxy) quinolone-3-carboxylic acid (HCl)] | B (an enhancement ratio from 10 to 20) | – | C (an enhancement ratio greater than 20) | – | – | – | –
COCC(=O)NC[C@H]1CC[C@H](Oc2cccc3nc(C)c(C(=O)O)c(N)c23)CC1 [Compound 601] | A (an enhancement ratio of greater than 1 and less than 10) | – | C (an enhancement ratio greater than 20) | A (an enhancement ratio of greater than 1 and less than 10) | – | C (an enhancement ratio greater than 20) | –
Cc1nc2cccc(O[C@H]3CC[C@H](CN)CC3)c2c(N)c1C(=O)O.Cl [Compound 602] | A (an enhancement ratio of greater than 1 and less than 10) | – | A (an enhancement ratio of greater than 1 and less than 10) | A (an enhancement ratio of greater than 1 and less than 10) | – | C (an enhancement ratio greater than 20) | –
CCOCC(=O)NC[C@H]1CC[C@H](Oc2cccc3nc(C)c(C(=O)O)c(N)c23)CC1 [Compound 603] | A (an enhancement ratio of greater than 1 and less than 10) | – | C (an enhancement ratio greater than 20) | – | C (an enhancement ratio greater than 20) | C (an enhancement ratio greater than 20) | –
